Assay results from patent US20090325894A1 (priority 2007, published 2009).
Like-named read-outs stand apart in the source and are kept apart here.

How the values were obtained:
[1] = system: LoVo cells; assay: Cell growth inhibition assay (MTS assay), LoVo cells; assay type: cell-based, Human; conditions: 48 hours, RPMI1640-SIT serum-free medium, read-out: Half maximal inhibitory concentration (IC50) LoVo cells
Protocol: (§1) Cell Growth Inhibition Assay (MTS Assay)
(§2) 1. Cell Strain and Reagents
LoVo: Human colorectal adenocarcinoma cell line (ATCC catalog # CCL-229);
(§3) SIT solution (SIGMA), RPMI 1640 culture solution, Phosphate buffer, Dimethyl sulfoxide (DMSO), MTS solution (Promega), 96-well cell culture plate;
(§4) Anti-tumor compounds: synthesized by Tianjin Hemay Bio-tech Co., Ltd.;
(§5) Positive control drugs: doxorubicin (Zhejiang Hisun Pharmaceutical Co., Ltd).
(§6) The above-mentioned cells were cultured for several days (RPMI 1640, 10% of bovine serum), collected and suspended in RPMI1640-SIT serum-free medium, placed into a 96-well cell culture plate with each well containing about 20,000 cells/100 μL. The cells were cultured overnight at 5% CO2 and 37° C. The next day, representative antitumor compounds (between 3 and 10 mM) were dissolved in dimethyl sulphoxide (DMSO) to obtain a mother solution. Doxorubicin was used as positive control, DMSO was used as negative control.
(§7) The mother solution was diluted and added to the 96 well cell culture plate, culture for 48 hours at 5% CO2 and 37° C. Subsequently, 20 μL of MTS solution was added to each well of the 96 well cell culture plate and cultured for another 2 to 4 hours at 5% CO2 and 37° C. Absorbance was read at 490 nm wavelength, and converted into cell survival rate.
(§8) Calculation of Percent Inhibition:
(§9) %inhibition=100−[reading of absorbance(compound)/reading of absorbance(blank)]×100
(§10) For each concentration, there two measurements were taken and the average value was recorded. The half maximal inhibitory concentration (IC50) of cell growth was calculated by cell growth inhibition curve.

[2] = system: HeLa cells; assay: Cell growth inhibition assay (MTS assay), HeLa cells; assay type: cell-based, Human; conditions: 48 hours, RPMI1640-SIT serum-free medium, read-out: Half maximal inhibitory concentration (IC50) HeLa cells
Protocol: as §1, §2
HeLa: Human adenocarcinoma cell line (ATCC catalog # CCL-2);
as §3, §4, §5, §6, §7, §8, §9, §10

[3] = Solubility in water; assay type: physicochemical
[4] = system: SW620 cells; assay: Cell growth inhibition assay (MTS assay), SW620 cells; assay type: cell-based, Human; conditions: RPMI1640-SIT serum-free medium, read-out: Half maximal inhibitory concentration (IC50) SW620 cells
Protocol: as §1, §2
SW620: Human colorectal adenocarcinoma cell line;
as §3, §4, §5, §6, §7, §8, §9, §10

Row | Molecule | IC50 [1] | other results
1 | Linoleic acyl-L-Alanyl-L-Valyl-Doxorubicin bissuccinate [Example 80] | 20 µM | IC50 [2]: > 100 µM
2 | DHA acyl-L-Alanyl-L-Valyl-Doxorubicin bissuccinate [Example 82] | 25 µM | –
3 | Oleoyl-L-Alanyl-L-Vayl-Doxorubicin maleate [Example 98] | 30 µM | –
4 | COc1cccc2c1C(=O)c1c(O)c3c(c(O)c1C2=O)CC(O)(C(=O)CO)CC3OC1CC(NC(=O)[C@@H](NC(=O)[C@H](C)NC(=O)CCC(=O)NCCNC(=O)CCC(=O)NCCNC(=O)OC(C)(C)C)C(C)C)C(O)C(C)O1 (stereo partly drawn) [Example 58, 4-(2-(4-(2-tert-butoxycarbonyl-aminoethylamino)-4-oxo-butanoylamino)ethylamino)-4-oxo-butanoyl-L-Alanyl-L-Valyl-Doxorubicin] | 75 µM | –
5 | 2-(2-(2-(2-(2-(2-(2-oleoylaminoethoxy)ethoxy)ethoxy)ethoxy)ethoxy)ethoxy)acetyl-L-Alanyl-L-Valyl-Doxorubicin [Example 68] | 30 µM | –
6 | (4-(2-(2-oleoylaminoethoxy)ethylamino)-4-oxo-butanoyl)-L-Alanyl-L-Valyl-Doxorubicin [Example 54] | 25 µM | –
7 | Oleoyl-L-Alanyl-L-Valyl-Daunorubicin bissuccinate [Example 76] | 10 µM | –
8 | Bissodium linoleic acyl-L-Alanyl-L-Valyl-Doxorubicin bissuccinate [Example 108] | 15 µM | –
9 | Bissodium oleoyl-L-Alanyl-L-Valyl-Doxorubicin bis(2-carboxyl-3,4,5,6-tetrafluorobenzoate) [Example 119] | – | solubility in water [3]: more than 1 mg/mL
10 | Oleoyl-L-Alanyl-L-Valyl-Doxorubicin bissuccinate [Example 70] | 20 µM | IC50 [2]: > 100 µM
11 | 4-(2-oleoylaminoethylamino)-4-oxo-butanoyl-L-Alanyl-L-Valyl-Doxorubicin bissuccinate [Example 79] | 50 µM | –
12 | COc1cccc2c1C(=O)c1c(O)c3c(c(O)c1C2=O)C[C@@](O)(C(=O)CO)C[C@@H]3O[C@H]1C[C@H](N)[C@H](O)[C@H](C)O1 [Doxorubicin, doxorubicin, reference compound] | – | IC50 ([2]; Homo sapiens, HeLa): 0.3 µM; IC50 ([1]; Homo sapiens, LoVo): 2.6 µM; IC50 ([4]; Homo sapiens, SW-620, 48 hours): 0.65 µM
13 | (4-(2-(2-oleoylaminoethoxy)ethoxy)-4-oxo-butanoyl)-L-Alanyl-L-Valyl-Doxorubicin [Example 69] | 25 µM | IC50 [2]: > 100 µM; IC50 ([4]; 48 hours): 12 µM
14 | CCCCCCCCC=CCCCCCCCC(=O)NCCNC(=O)CCC(=O)NCCNC(=O)CCC(=O)NC(C)C(=O)NC(C(=O)NC1CC(OC2CC(O)(C(=O)CO)Cc3c(O)c4c(c(O)c32)C(=O)c2c(OC)cccc2C4=O)OC(C)C1O)C(C)C [Example 59, 4-(2-(4-(2-oleoylaminoethylamino)-4-oxo-butanoylamino)ethylamino)-4-oxo-butanoyl-L-Alanyl-L-Valyl-Doxorubicin] | > 100 µM | –
15 | (4-(2-oleoylaminoethylamino)-4-oxo-butanoyl)-L-Alanyl-L-Valyl-Doxorubicin [Example 57] | > 100 µM | –
16 | Linolenic acyl-L-Alanyl-L-Valyl-Doxorubicin bissuccinate [Example 81] | 18 µM | –

Second part, led by results:

Row | IC50 [1] | Molecule | other results
17 | 10 µM | Oleoyl-L-Alanyl-L-Valyl-Doxorubicin bis(2-carboxyl-3,4,5,6-tetrafluorobenzoate) [Example 97] | –
18 | 12 µM | Bissodium linolenic acyl-L-Alanyl-L-Valyl-Doxorubicin bissuccinate [Example 109] | –
19 | 2.5 µM | CCCCCCCC/C=C\CCCCCCCC(=O)NCCOCCOCCOCCOCCOCCOCC(=O)N[C@@H](C)C(=O)N[C@H](C(=O)NC1CC(OC2CC(O)(C(=O)COC(=O)CCC(=O)O)Cc3c(O)c4c(c(O)c32)C(=O)c2c(OC)cccc2C4=O)OC(C)C1OC(=O)CCC(=O)O)C(C)C (stereo partly drawn) [Example 86, 2-(2-(2-(2-(2-(2-(2-oleoylamino-ethoxy)ethoxy)ethoxy)ethoxy)ethoxy)ethoxy)actyl-L-Alanyl-L-Valyl-Doxorubicin bissuccinate] | –
20 | 12 µM | 4-(2-(2-oleoylaminoethoxy)ethylamino)-4-oxo-butanoyl-L-Alanyl-L-Valyl-Doxorubicin bissuccinate [Example 77] | IC50 [2]: 75 µM
21 | 10 µM | Trisodium 4-(2-(2-oleoylaminoethoxy)ethylamino)-4-oxo-butanoyl-L-Alanyl-L-Valyl-Doxorubicin trisuccinate [Example 121] | IC50 [2]: 5 µM
22 | 0.8 µM | Oleoyl-L-Alanyl-L-Valyl-Epirubicin bissuccinate [Example 75] | –
23 | 8 µM | Oleoyl-Glycyl-L-Alanyl-L-Valyl-Doxorubicin bissuccinate [Example 74] | –
24 | 2 µM | Bissodium 4-(2-(2-oleoylaminoethoxy)ethylamino)-4-oxo-butanoyl-L-Alanyl-L-Valyl-Doxorubicin bissuccinate [Example 112] | IC50 [2]: 3 µM; IC50 ([4]; 48 hours): 1.5 µM
